Patent US6355799B1, “Substituted benzene compounds, process for their preparation, and herbicidal and defoliant compositions containing them” (ISK Americas Incorporated, priority 1997, dated 2002)

Assays:
Assay type in all cases: in vivo
[1] = test system: redroot pigweed (Amaranthus retroflexus, AMARE); experiment: Pre-emerge test, greenhouse herbicide activity screening; details: pre-emerge, phytotoxicity rating 0-100 at 14 days after application
In short: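 Compounds in acetone were track-sprayed at 187 l/ha, 15–1000 g ai/ha, onto sandy loam pots. Pre-emerge seeds were sown one day before spraying, with surface watering afterwards. Post-emerge plants were at the 2–3 leaf stage and sprayed with 0.25% v/v non-ionic surfactant. Injury was rated 0–100 at 14 days.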

[2] = test system: barnyardgrass (Echinochloa crus-galli, ECHCG); experiment: as above; details: pre-emerge, phytotoxicity rating 0-100 at 14 days after application
In short: (§1)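 Herbicidal damage is scored 0 (none) to 100 (complete plant death) two weeks after a simulated field spray. Rates span 15–1000 g ai/ha, delivered in acetone at 187 l/ha. For post-emergence treatments, plants have 2–3 leaves and the spray carries 0.25% v/v non-ionic surfactant.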

[3] = test system: green foxtail (Setaria viridis, SETVI); experiment: as above; details: pre-emerge, phytotoxicity rating 0-100 at 14 days after application
In short: as §1

[4] = test system: ivyleaf morningglory (Ipomoea hederacea, IPOHE); experiment: as above; details: pre-emerge, phytotoxicity rating 0-100 at 14 days after application
In short: as §1

[5] = test system: johnsongrass (Sorghum halepense, SORHA); experiment: as above; details: pre-emerge, phytotoxicity rating 0-100 at 14 days after application
In short: as §1

[6] = test system: lambsquarters (Chenopodium album, CHEAL); experiment: as above; details: pre-emerge, phytotoxicity rating 0-100 at 14 days after application
In short: as §1

[7] = test system: large crabgrass (Digitaria sanguinalis, DIGSA); experiment: as above; details: pre-emerge, phytotoxicity rating 0-100 at 14 days after application
In short: as §1

[8] = test system: sicklepod (Cassia obtusifolia, CASOB); experiment: as above; details: pre-emerge, phytotoxicity rating 0-100 at 14 days after application
In short: as §1

[9] = test system: velvetleaf (Abutilon theophrasti, ABUTH); experiment: as above; details: pre-emerge, phytotoxicity rating 0-100 at 14 days after application
In short: as §1

[10] = test system: field corn (Zea mays L., var. Dekalb 535, CORN); experiment: Pre-emerge test, crop safety; details: crop damage, pre-emerge, phytotoxicity rating 0-100 at 14 days after application
In short: (§2)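 Compounds in acetone were track-sprayed at 15-1000 g ai/ha (187 l/ha) on sandy loam pots: pre-emerge one day after seeding, post-emerge at 2-3 leaf stage with 0.25% v/v non-ionic surfactant. Phytotoxicity was rated 14 days later on a 0 (no damage) to 100 (complete death) scale.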

[11] = test system: upland rice (Oryza sp., var. Tebonnet, RICE); experiment: Pre-emerge test, crop safety; details: crop damage, pre-emerge, phytotoxicity rating 0-100 at 14 days after application
In short: as §2

[12] = test system: barnyardgrass (Echinochloa crus-galli, ECHCG); experiment: Post-emerge test, greenhouse herbicide activity screening; details: post-emerge, 14 days after application, rating scale 0-100
In short: (§3)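 Applied at 15–1000 g ai/ha from acetone in 187 l/ha spray volume. Post-emergence applications included 0.25% v/v non-ionic surfactant and reached plants sown 8–21 days before. Pre-emergence applications were incorporated by surface watering. Efficacy or crop damage was rated on a 0–100 scale after 14 days.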

[13] = test system: green foxtail (Setaria viridis, SETVI); experiment: as above; details: post-emerge, 14 days after application, rating scale 0-100
In short: as §3

[14] = test system: ivyleaf morningglory (Ipomoea hederacea, IPOHE); experiment: as above; details: post-emerge, 14 days after application, rating scale 0-100
In short: as §3

[15] = test system: johnsongrass (Sorghum halepense, SORHA); experiment: as above; details: post-emerge, 14 days after application, rating scale 0-100
In short: as §3

[16] = test system: lambsquarters (Chenopodium album, CHEAL); experiment: as above; details: post-emerge, 14 days after application, rating scale 0-100
In short: as §3

[17] = test system: large crabgrass (Digitaria sanguinalis, DIGSA); experiment: as above; details: post-emerge, 14 days after application, rating scale 0-100
In short: as §3

[18] = test system: redroot pigweed (Amaranthus retroflexus, AMARE); experiment: as above; details: post-emerge, 14 days after application
In short: as §3

[19] = test system: sicklepod (Cassia obtusifolia, CASOB); experiment: as above; details: post-emerge, 14 days after application, rating scale 0-100
In short: as §3

[20] = test system: velvetleaf (Abutilon theophrasti, ABUTH); experiment: as above; details: post-emerge, 14 days after application, rating scale 0-100
In short: as §3

[21] = test system: field corn (Zea mays L., var. Dekalb 535, CORN); experiment: Post-emerge test, crop safety; details: post-emerge, 14 days after application, rating scale 0-100
In short: as §1

[22] = test system: upland rice (Oryza sp., var. Tebonnet, RICE); experiment: Post-emerge test, crop safety; details: post-emerge, 14 days after application, rating scale 0-100
In short: as §1

[23] = 63 g ai/ha, rating scale 0-100 (0 no damage, 100 complete death)
[24] = 250 g ai/ha, rating scale 0-100

Cc1ccccc1COC(=O)Nc1c(C)c(Cl)cc(F)c1-n1c(=O)cc(C(F)(F)F)n(C)c1=O [4-56]
Pre-emerge Herbicidal Activity AMARE ([1]; rate 63 g ai/ha): 100 | Pre-emerge Herbicidal Activity AMARE ([1]; rate 250 g ai/ha): 100 | Pre-emerge Herbicidal Activity ECHCG ([2]; rate 63 g ai/ha): 50 | Pre-emerge Herbicidal Activity ECHCG ([2]; rate 250 g ai/ha): 80 | Pre-emerge Herbicidal Activity SETVI ([3]; rate 63 g ai/ha): 90 | Pre-emerge Herbicidal Activity SETVI ([3]; rate 250 g ai/ha): 95 | Pre-emerge Herbicidal Activity IPOHE ([4]; rate 63 g ai/ha): 40 | Pre-emerge Herbicidal Activity IPOHE ([4]; rate 250 g ai/ha): 100 | Pre-emerge Herbicidal Activity SORHA ([5]; rate 63 g ai/ha): 50 | Pre-emerge Herbicidal Activity SORHA ([5]; rate 250 g ai/ha): 90 | Pre-emerge Herbicidal Activity CHEAL ([6]; rate 63 g ai/ha): 100 | Pre-emerge Herbicidal Activity CHEAL ([6]; rate 250 g ai/ha): 100 | Pre-emerge Herbicidal Activity DIGSA ([7]; rate 63 g ai/ha): 50 | Pre-emerge Herbicidal Activity DIGSA ([7]; rate 250 g ai/ha): 95 | Pre-emerge Herbicidal Activity CASOB ([8]; rate 63 g ai/ha): 10 | Pre-emerge Herbicidal Activity CASOB ([8]; rate 250 g ai/ha): 100 | Pre-emerge Herbicidal Activity ABUTH ([9]; rate 63 g ai/ha): 100 | Pre-emerge Herbicidal Activity ABUTH ([9]; rate 250 g ai/ha): 100 | Pre-emerge Herbicidal Activity CORN ([10]; rate 63 g ai/ha): 35 | Pre-emerge Herbicidal Activity CORN ([10]; rate 250 g ai/ha): 80 | Pre-emerge Herbicidal Activity RICE ([11]; rate 63 g ai/ha): 50 | Pre-emerge Herbicidal Activity RICE ([11]; rate 250 g ai/ha): 90 | phytotoxicity rating ECHCG ([12]; 63 g ai/ha): 50 | phytotoxicity rating ECHCG ([12]; 250 g ai/ha): 90 | phytotoxicity rating SETVI ([13]; 63 g ai/ha): 90 | phytotoxicity rating SETVI ([13]; 250 g ai/ha): 100 | phytotoxicity rating IPOHE ([14]; 63 g ai/ha): 100 | phytotoxicity rating IPOHE ([14]; 250 g ai/ha): 100 | phytotoxicity rating SORHA ([15]; 63 g ai/ha): 40 | phytotoxicity rating SORHA ([15]; 250 g ai/ha): 90 | phytotoxicity rating CHEAL ([16]; 63 g ai/ha): 100 | phytotoxicity rating CHEAL ([16]; 250 g ai/ha): 100 | phytotoxicity rating DIGSA ([17]; 63 g ai/ha): 20 | phytotoxicity rating DIGSA ([17]; 250 g ai/ha): 70 | phytotoxicity rating AMARE [18, 23]: 100 | phytotoxicity rating AMARE [18, 24]: 100 | phytotoxicity rating CASOB ([19]; 63 g ai/ha): 100 | phytotoxicity rating CASOB ([19]; 250 g ai/ha): 100 | phytotoxicity rating ABUTH ([20]; 63 g ai/ha): 100 | phytotoxicity rating ABUTH ([20]; 250 g ai/ha): 100 | phytotoxicity rating CORN (crop damage) ([21]; 63 g ai/ha): 80 | phytotoxicity rating CORN (crop damage) ([21]; 250 g ai/ha): 100 | phytotoxicity rating RICE (crop damage) ([22]; 63 g ai/ha): 65 | phytotoxicity rating RICE (crop damage) ([22]; 250 g ai/ha): 85

Cc1c(Cl)cc(F)c(-n2c(=O)cc(C(F)(F)F)n(C)c2=O)c1NC(=O)OCCc1ccccc1 [4-57]
Pre-emerge Herbicidal Activity AMARE ([1]; rate 63 g ai/ha): 95 | Pre-emerge Herbicidal Activity AMARE ([1]; rate 250 g ai/ha): 100 | Pre-emerge Herbicidal Activity ECHCG ([2]; rate 63 g ai/ha): 20 | Pre-emerge Herbicidal Activity ECHCG ([2]; rate 250 g ai/ha): 75 | Pre-emerge Herbicidal Activity SETVI ([3]; rate 63 g ai/ha): 80 | Pre-emerge Herbicidal Activity SETVI ([3]; rate 250 g ai/ha): 100 | Pre-emerge Herbicidal Activity IPOHE ([4]; rate 63 g ai/ha): 50 | Pre-emerge Herbicidal Activity SORHA ([5]; rate 63 g ai/ha): 10 | Pre-emerge Herbicidal Activity SORHA ([5]; rate 250 g ai/ha): 70 | Pre-emerge Herbicidal Activity CHEAL ([6]; rate 63 g ai/ha): 100 | Pre-emerge Herbicidal Activity CHEAL ([6]; rate 250 g ai/ha): 100 | Pre-emerge Herbicidal Activity DIGSA ([7]; rate 63 g ai/ha): 60 | Pre-emerge Herbicidal Activity DIGSA ([7]; rate 250 g ai/ha): 95 | Pre-emerge Herbicidal Activity CASOB ([8]; rate 63 g ai/ha): 10 | Pre-emerge Herbicidal Activity CASOB ([8]; rate 250 g ai/ha): 100 | Pre-emerge Herbicidal Activity ABUTH ([9]; rate 63 g ai/ha): 100 | Pre-emerge Herbicidal Activity ABUTH ([9]; rate 250 g ai/ha): 100 | Pre-emerge Herbicidal Activity CORN ([10]; rate 63 g ai/ha): 0 | Pre-emerge Herbicidal Activity CORN ([10]; rate 250 g ai/ha): 45 | Pre-emerge Herbicidal Activity RICE ([11]; rate 63 g ai/ha): 20 | Pre-emerge Herbicidal Activity RICE ([11]; rate 250 g ai/ha): 70 | phytotoxicity rating ECHCG ([12]; 63 g ai/ha): 30 | phytotoxicity rating ECHCG ([12]; 250 g ai/ha): 40 | phytotoxicity rating SETVI ([13]; 63 g ai/ha): 50 | phytotoxicity rating SETVI ([13]; 250 g ai/ha): 90 | phytotoxicity rating IPOHE ([14]; 63 g ai/ha): 100 | phytotoxicity rating IPOHE ([14]; 250 g ai/ha): 100 | phytotoxicity rating SORHA ([15]; 63 g ai/ha): 30 | phytotoxicity rating SORHA ([15]; 250 g ai/ha): 50 | phytotoxicity rating CHEAL ([16]; 63 g ai/ha): 95 | phytotoxicity rating CHEAL ([16]; 250 g ai/ha): 100 | phytotoxicity rating DIGSA ([17]; 63 g ai/ha): 10 | phytotoxicity rating DIGSA ([17]; 250 g ai/ha): 60 | phytotoxicity rating AMARE [18, 23]: 100 | phytotoxicity rating AMARE [18, 24]: 100 | phytotoxicity rating CASOB ([19]; 63 g ai/ha): 60 | phytotoxicity rating CASOB ([19]; 250 g ai/ha): 100 | phytotoxicity rating ABUTH ([20]; 63 g ai/ha): 100 | phytotoxicity rating ABUTH ([20]; 250 g ai/ha): 100 | phytotoxicity rating CORN (crop damage) ([21]; 63 g ai/ha): 40 | phytotoxicity rating CORN (crop damage) ([21]; 250 g ai/ha): 90 | phytotoxicity rating RICE (crop damage) ([22]; 63 g ai/ha): 50 | phytotoxicity rating RICE (crop damage) ([22]; 250 g ai/ha): 80
